These results are taken from US10435361B2, “Kinase inhibitors” (Topivert Pharma Limited, priority 2013, dated 2019).

This assay concerns PBMCs. In words: LPS-induced TNFα/IL-8 release in PBMC cells. As to conditions: Homo sapiens, assay (b), read-out: IC50 Values for Inhibition of Cytokine Release PBMCs IL-8. It is filed as cell-based. As for the experimental part: Peripheral blood mononuclear cells (PBMCs) from healthy subjects are separated from whole blood using a density gradient (Lymphoprep, Axis-Shield Healthcare). The PBMCs are seeded in 96 well plates and treated with compounds at the desired concentration for 2 hours before addition of 1 ng/mL LPS (Escherichia Coli 0111:B4 from Sigma Aldrich) for 24 hours under normal tissue culture conditions (37° C., 5% CO2). The supernatant is harvested for determination of IL-8 and TNFα concentrations by sandwich ELISA (Duo-set, R&D systems) and read on the fluorescence microplate reader (Varioskan® Flash, ThermoFisher Scientific).
On to `COc1cc(Nc2cc(Oc3ccc(NC(=O)Nc4cc(C(C)(C)C)cc(NS(C)(=O)=O)c4OC)c4ccccc34)ccn2)cc(C(=O)NCCN2CCCC2)c1` [83(d), 3-((4-((4-(3-(5-(tert-butyl)-2-methoxy-3-(methylsulfonamido)phenyl)ureido)naphthalen-1-yl)oxy)pyridin-2-yl)amino)-5-methoxy-N-(2-(pyrrolidin-1-yl)ethyl)benzamide], for which the IC50 turned out to be 12.1 nM.
The value for `COc1cc(Nc2cc(Oc3ccc(NC(=O)Nc4cc(C(C)(C)C)cc(NS(C)(=O)=O)c4OC)c4ccccc34)ccn2)cc(C(=O)NCCN2CCCCC2)c1` [83(e), 3-((4-((4-(3-(5-(tert-butyl)-2-methoxy-3-(methylsulfonamido)phenyl)ureido)naphthalen-1-yl)oxy)pyridin-2-yl)amino)-5-methoxy-N-(2-(piperidin-1-yl)ethyl)benzamide] was 8 nM.
With `COc1c(NC(=O)Nc2ccc(Oc3ccnc(Nc4ccccc4)c3)c3ccccc23)cc(C(C)(C)C)cc1NS(=O)(=O)N1CCOCC1` [83(f), N-(5-(tert-butyl)-2-methoxy-3-(3-(4-((2-(phenylamino)pyridin-4-yl)oxy)naphthalen-1-yl)ureido)phenyl)morpholine-4-sulfonamide], the IC50 was determined as 13.1 nM.
Take `COCCOCCOCCOc1cc(Nc2cc(Oc3ccc(NC(=O)Nc4cc(C(C)(C)C)cc(C(=O)NCCN)c4OC)c4ccccc34)ccn2)cc(OC)c1` [83(g), N-(2-aminoethyl)-5-(tert-butyl)-2-methoxy-3-(3-(4-((2-((3-methoxy-5-(2-(2-(2-methoxy-ethoxy)ethoxy)ethoxy)phenyl)amino)pyridin-4-yl)oxy)naphthalen-1-yl)ureido)benzamide]: the IC50 worked out at 7.3 nM.
Consider `COc1c(NC(=O)Nc2ccc(Oc3ccnc(Nc4ccccc4)c3)c3ccccc23)cc(C(C)(C)C)cc1C(=O)NC1CCOCC1` [84(a), 3-[[4-[(2-Anilino-4-pyridyl)oxy]-1-naphthyl]carbamoylamino]-5-tert-butyl-2-methoxy-N-tetrahydropyran-4-yl-benzamide], for which the IC50 was determined as 12.4 nM.
The value for `COc1c(NC(=O)Nc2ccc(Oc3ccnc(Nc4ccccc4)c3)c3ccccc23)cc(C(C)(C)C)cc1C(=O)NC1CCN(C)CC1` [84(b), 3-[[4-[(2-Anilino-4-pyridyl)oxy]-1-naphthyl]carbamoylamino]-5-tert-butyl-2-methoxy-N-(1-methyl-4-piperidyl)benzamide] was 9.1 nM; that for `COc1c(NC(=O)Nc2ccc(Oc3ccnc(Nc4ccccc4)c3)c3ccccc23)cc(C(C)(C)C)cc1C(=O)N[C@@H]1CCOC1` [84(c), 3-[[4-[(2-Anilino-4-pyridyl)oxy]-1-naphthyl]carbamoylamino]-5-tert-butyl-2-methoxy-N-[(3R)-tetrahydrofuran-3-yl]benzamide] was 21.8 nM; that for `COc1cc(Nc2cc(Oc3ccc(NC(=O)Nc4cc(C(C)(C)C)cc(NS(C)(=O)=O)c4OC)c4ccccc34)ccn2)cc(OCCOCCOCCO)c1` [84(e), 1-[5-tert-Butyl-3-(methanesulfonamido)-2-methoxy-phenyl]-3-[4-[[2-[3-[2-[2-(2-hydroxyethoxy)ethoxy]ethoxy]-5-methoxy-anilino]-4-pyridyl]oxy]-1-naphthyl]urea] was 1.3 nM.
The value for `COc1cc(CO)cc(Nc2cc(Oc3ccc(NC(=O)Nc4cc(C(C)(C)C)cc(NS(C)(=O)=O)c4OC)c4ccccc34)ccn2)c1` [84(f), 1-[5-tert-Butyl-3-(methanesulfonamido)-2-methoxyphenyl]-3-[4-[[2-[3-(hydroxymethyl)-5-methoxyanilino]-4-pyridyl]oxy]-naphthyl]urea] was 13.5 nM.
`C#Cc1cc(Nc2cc(Oc3ccc(NC(=O)Nc4cc(C(C)(C)C)cc(NS(C)(=O)=O)c4OC)c4ccccc34)ccn2)cc(C(=O)NCCN2CCN(C)CC2)c1` [85(c), 3-[[4-[[4-[[5-tert-Butyl-3-(methanesulfonamido)-2-methoxyphenyl]-carbamoylaminol]-1-naphthyl]oxy]-2-pyridyl]amino]-5-ethynyl-N-[2-(4-methylpiperazin-1-yl)ethyl]benzamide]: the IC50 was 4.6 nM.
The value for `COc1cc(Nc2nccc(Oc3ccc(NC(=O)Nc4cc(C(C)(C)C)cc(NS(C)(=O)=O)c4OC)c4ccccc34)n2)cc(C(=O)NCCN2CCN(C)CC2)c1` [85(e), 3-[[4-[[4-[[5-tert-Butyl-3-(methanesulfonamido)-2-methoxyphenyl]-carbamoylamino]-1-naphthyl]oxy]pyrimidin-2-yl]amino]-5-methoxy-N-[2-(4-methylpiperazin-1-yl)ethyl]benzamide] was 1.7 nM.
As for `COc1cc(Nc2nccc(Oc3ccc(NC(=O)Nc4cc(C(C)(C)C)cc(NS(C)(=O)=O)c4OC)c4ccccc34)n2)cc(C(=O)NCCCN2CCOCC2)c1` [85(f), 3-[[4-[[4-[[5-tert-Butyl-3-(methanesulfonamido)-2-methoxyphenyl]-carbamoylamino]-1-naphthyl]oxy]pyrimidin-2-yl]amino]-5-methoxy-N-(3-morpholinopropyl)-benzamide], the IC50 came to 0.7 nM.
As to `C#Cc1cc(Nc2nccc(Oc3ccc(NC(=O)Nc4cc(C(C)(C)C)cc(C(N)=O)c4OC)c4ccccc34)n2)cc(C(=O)NCCN2CCOCC2)c1` [85(g), 5-tert-Butyl-3-[[4-[2-[3-ethynyl-5-(2-morpholinoethylcarbamoyl)anilino]-pyrimidin-4-yl]oxy-1-naphthyl]carbamoylamino]-2-methoxy-benzamide], the IC50 came to 1 nM.
The value for `COc1cc(Nc2cc(Oc3ccc(NC(=O)Nc4cc(C(C)(C)C)cc(NS(C)(=O)=O)c4OC)c4ccccc34)ccn2)cc(C(=O)NCCN2CCSCC2)c1` [85(i), 3-[[4-[[4-[[5-tert-Butyl-3-(methanesulfonamido)-2-methoxyphenyl]-carbamoylamino]-1-naphthyl]oxy]-2-pyridyl]amino]-5-methoxy-N-(2-thiomorpholinoethyl)-benzamide] was 1.5 nM.
In the case of `COc1cc(Nc2cc(Oc3ccc(NC(=O)Nc4cc(C(C)(C)C)cc(NS(C)(=O)=O)c4OC)c4ccccc34)ccn2)cc(C(=O)NCCN2CC[S+]([O-])CC2)c1` [85(j), 3-[[4-[[4-[[5-tert-Butyl-3-(methanesulfonamido)-2-methoxyphenyl]-carbamoylamino]-1-naphthyl]oxy]-2-pyridyl]amino]-5-methoxy-N-[2-(1-oxo-1,4-thiazinan-4-yl)ethyl]benzamide], the IC50 worked out at 2.1 nM.
The value for `COc1cc(Nc2cc(Oc3ccc(NC(=O)Nc4cc(C(C)(C)C)cc(NS(C)(=O)=O)c4OC)c4ccccc34)ccn2)cc(C(=O)NCCN2CCOCC2(C)C)c1` [85(l), 3-[[4-[[4-[[5-tert-Butyl-3-(methanesulfonamido)-2-methoxyphenyl]-carbamoylamino]-1-naphthyl]oxy]-2-pyridyl]amino]-N-[2-(3,3-dimethylmorpholin-4-yl)ethyl]-5-methoxybenzamide] was 2.8 nM; that for `COc1cc(Nc2cc(Oc3ccc(NC(=O)Nc4cc(C(C)(C)C)cc(NS(C)(=O)=O)c4OC)c4ccccc34)ccn2)cc(C(=O)NCCN2CCCN(C)CC2)c1` [85(p), 3-[[4-[[4-[[5-tert-Butyl-3-(methanesulfonamido)-2-methoxyphenyl]-carbamoylamino]-1-naphthyl]oxy]-2-pyridyl]amino]-5-methoxy-N-[2-(4-methyl-1,4-diazepan-1-yl)ethyl]benzamide] was 7.1 nM.
With `COc1cc(Nc2cc(Oc3ccc(NC(=O)Nc4cc(C(C)(C)C)cc(NS(C)(=O)=O)c4OC)c4ccccc34)ccn2)cc(C(=O)NCCN2CCNCC2)c1` [85(q), 3-[[4-[[4-[[5-tert-Butyl-3-(methanesulfonamido)-2-methoxyphenyl]-carbamoylamino]-1-naphthyl]oxy]-2-pyridyl]amino]-5-methoxy-N-(2-piperazin-1-ylethyl)benzamide], the IC50 was found to be 6.1 nM.
The value for `COc1cc(Nc2cc(Oc3ccc(NC(=O)Nc4cc(C(C)(C)C)cc(NS(C)(=O)=O)c4OC)c4ccccc34)ccn2)cc(C(=O)NCCOCCOCCO)c1` [85(r), 3-[[4-[[4-[[5-tert-Butyl-3-(methanesulfonamido)-2-methoxyphenyl]-carbamoylamino]-1-naphthyl]oxy]-2-pyridyl]amino]-N-[2-[2-(2-hydroxyethoxy)ethoxy]-ethyl]-5-methoxy-benzamide] was 0.6 nM.
The value for `COCCOCCOCCOCCNC(=O)c1cc(Nc2cc(Oc3ccc(NC(=O)Nc4cc(C(C)(C)C)cc(NS(C)(=O)=O)c4OC)c4ccccc34)ccn2)cc(OC)c1` [85(v), 3-[[4-[[4-[[5-tert-Butyl-3-(methanesulfonamido)-2-methoxyphenyl]-carbamoylamino]-1-naphthyl]oxy]-2-pyridyl]amino]-5-methoxy-N-[2-[2-[2-(2-methoxyethoxy)ethoxy]ethoxy]-ethyl]benzamide] was 0.4 nM.
Regarding `COc1cc(Nc2cc(Oc3ccc(NC(=O)Nc4cc(C(C)(C)C)cc(NS(C)(=O)=O)c4OC)c4ccccc34)ccn2)cc(C(=O)NCCN2CCC(O)CC2)c1` [85(w), 3-[[4-[[4-[[5-tert-Butyl-3-(methanesulfonamido)-2-methoxyphenyl]-carbamoylamino]-1-naphthyl]oxy]-2-pyridyl]amino]-N-[2-(4-hydroxy-1-piperidyl)ethyl]-5-methoxybenzamide], the IC50 is 2.9 nM.
As for `COCCOCCOCC[S+]([O-])c1cc(Nc2cc(Oc3ccc(NC(=O)Nc4cc(C(C)(C)C)cc(NS(C)(=O)=O)c4OC)c4ccccc34)ccn2)cc(OC)c1` (stereo not shown) [85(x), 1-[5-tert-Butyl-3-(methanesulfonamido)-2-methoxyphenyl]-3-[4-[2-[3-methoxy-5-[2-[2-(2-methoxyethoxy)ethoxy]ethylsulfinyl]anilino]pyridin-4-yl]oxy-1-naphthyl]urea], the IC50 stood at 0.9 nM.

As usually defined, the IC50 is the concentration needed to halve the response being measured.
